Measurements reported in article PMC6556568, “A surface-exposed GH26 β-mannanase from Bacteroides ovatus: Structure, role, and phylogenetic analysis of BoMan26B” (The Journal of Biological Chemistry, 2019).

Target: T1, BoMan26B (Bacteroides ovatus, UniProt A0ABU3IS29)
T1 construct: gene RO706_12620; signal peptide (first 19 residues) removed; recombinant in E. coli BL21(DE3), purified on a HisTrap column; residues 37-361 modelled; catalytic Glu-201 and Glu-291
T1 sequence (A0ABU3IS29 20-360): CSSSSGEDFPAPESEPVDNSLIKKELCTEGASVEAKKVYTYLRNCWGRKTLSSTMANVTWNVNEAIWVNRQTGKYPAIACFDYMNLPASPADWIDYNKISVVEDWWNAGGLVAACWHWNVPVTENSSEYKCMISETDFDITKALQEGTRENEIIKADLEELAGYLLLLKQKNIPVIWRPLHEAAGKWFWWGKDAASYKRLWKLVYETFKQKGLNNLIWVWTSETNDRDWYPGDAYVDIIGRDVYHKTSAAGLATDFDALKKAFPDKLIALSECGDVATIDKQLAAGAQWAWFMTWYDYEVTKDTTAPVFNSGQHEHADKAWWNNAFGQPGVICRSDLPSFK
Experiment: hydrolysis in H2^[…], MALDI-TOF MS and HPAEC-PAD
Format: biochemical
Conditions: 2 mM M6, 1 mM CaCl2, potassium phosphate pH 6.5, 8 °C

## OC[C@H]1O[C@@H](O[C@H]2[C@H](O)[C@H](O)[C@H](O[C@H]3[C@H](O)[C@H](O)[C@H](O[C@H]4[C@H](O)[C@H](O)[C@H](O[C@H]5[C@H](O)[C@H](O)[C@H](O[C@H]6[C@H](O)[C@H](O)C(O)O[C@@H]6CO)O[C@@H]5CO)O[C@@H]4CO)O[C@@H]3CO)O[C@@H]2CO)[C@@H](O)[C@@H](O)[C@@H]1O (stereo partly shown) [M6, mannohexaose]
  hydrolysis in H2^18O, MALDI-TOF MS and HPAEC-PAD: The main hydrolytic events of BoMan26B on M6 result in production of mannose
